US20050209157A1, “Short bioactive peptides and methods for their use” (priority 2001, published 2005)
Like-named read-outs stand apart in the source and are kept apart here. No end group written: not given here.

Assays:
Pseudomonas aeruginosa = experiment: Serum inactivation of peptides, serum MIC; format: cell-based; conditions: for MIC 30 min treatment: sheep serum 37° C. 30 minutes; for MIC 2 hr treatment: sheep serum 37° C. 2 hours
Procedure: Subsequently, the serum MICs against Pseudomonas aeruginosa were conducted to determine extent of serum inactivation of the peptides.

P. aeruginosa H374 = format: cell-based, Pseudomonas aeruginosa; conditions: for MIC Cm-comb.: MIC of chloramphenicol with peptide at ¼ MIC; for MIC Nal-comb.: MIC of nalidixic acid with peptide at ¼ MIC; for FIC Index: 0.5 or less = synergy
Outline: (§1)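 Efflux-mutant strains were tested with two-fold serial dilutions of chloramphenicol or nalidixic acid, alone and with peptide held at ¼ of its own MIC.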

P. aeruginosa H774 = format: cell-based, Pseudomonas aeruginosa; conditions: P. aeruginosa H744; nalidixic acid + peptide at ¼ MIC; 0.5 or less = synergy
Outline: as §1

P. aeruginosa = format: cell-based, Pseudomonas aeruginosa; conditions: P. aeruginosa H744; MIC of nalidixic acid with peptide at ¼ MIC
Outline: as §1

[1] = Solubility of peptides in sheep serum; format: physicochemical
SW480 = experiment: Anti-cancer assay, MTT, LD50; format: cell-based; conditions: SW480 colon adenocarcinoma line, 24 hours with peptide
Description: (§2) Numbers are LD50 values (μg/mL).

BMKC = experiment: Anti-cancer assay, MTT, LD50; format: cell-based; conditions: BMKC cloned melanoma line, 24 hours with peptide
Description: as §2

MCF7 = experiment: Anti-cancer assay, MTT, LD50; format: cell-based; conditions: MCF7 breast adenocarcinoma line, MTT, 24 hours with peptide
Description: as §2

HeLaS3 = experiment: Anti-cancer assay, MTT, LD50; format: cell-based; conditions: 24 hours with peptide, cervical carcinoma
Description: as §2

H1299 = experiment: Anti-cancer assay, MTT, LD50; format: cell-based; conditions: 24 hours with peptide, lung large cell carcinoma
Description: as §2

PC3 = experiment: Anti-cancer assay, MTT, LD50; format: cell-based; conditions: 24 hours with peptide, prostate adenocarcinoma
Description: as §2

WI38 = conditions: MTT, 24 hours with peptide; normal fibroblast line
in vitro [2] = conditions: human, WI38 normal lung fibroblast cells, LD50 WI38, WI38 normal lung fibroblast line, MTT, 24 hours with peptide
in vitro [3] = format: cell-based, human; conditions: human, human red blood cells, pH 7, hemolytic assay, concentration at 50% hemolysis, 1 hour at 37° C.; read-out: LD50
[4] = system: yeast (Saccharomyces cerevisiae); experiment: Antimicrobial assay I, yeast assay in RPMI 1640; format: cell-based; conditions: RPMI 1640 media
[5] = system: Pseudomonas aeruginosa ATCC 9027; experiment: Antimicrobial assay I, MIC by OD measurement; format: cell-based; conditions: 37° C. for 24 hours, absorbance 620 nm
[6] = system: Staphylococcus aureus ATCC 6538; experiment: Antimicrobial assay I, MIC by OD measurement; format: cell-based; conditions: 37° C. for 24 hours, absorbance 620 nm
[7] = Synergy of Shiva-1 and lysozyme, percent viability; format: cell-based, Staphylococcus intermedius
Procedure: (§3) The percent viability of gram positive S. intermedius 19930, S. intermedius 20034, and S. aureus was determined relative to blank controls.

[8] = Synergy of Shiva-1 and lysozyme, percent viability; format: cell-based, Pseudomonas aeruginosa; conditions: Pseudomonas aeruginosa
Procedure: The percent viability of Pseudomonas aeruginosa was determined relative to blank controls.

[9] = Synergy of Shiva-1 and lysozyme, percent viability; format: cell-based, Staphylococcus aureus; conditions: S. aureus
Procedure: as §3

[10] = chloramphenicol + peptide at ¼ MIC
[11] = nalidixic acid + peptide at ¼ MIC, FIC=0.25+MIC comb/MIC alone

## FAKKLAKKLKKLAKKLAK-NH2 [P69]
Pseudomonas aeruginosa; first of two columns
  MIC 30 min treatment: 20 µg/mL
  MIC 2 hr treatment: 20 µg/mL
Pseudomonas aeruginosa; second of two columns
  MIC 30 min treatment: 20 µg/mL
  MIC 2 hr treatment: 20 µg/mL
P. aeruginosa H374
  MIC Cm-comb.: 8 µg/mL
  MIC Nal-comb.: 2500 µg/mL
P. aeruginosa H374; [10]
  FIC Index: 0.75
P. aeruginosa H374; [11]
  FIC Index: 0.75
P. aeruginosa H774
  FIC Index: 0.75
P. aeruginosa
  MIC Nal-comb.: 312 µg/mL
[1]; sheep serum, […], 70% serum
  Solubility: Precipitated

## FALALKALKKLLKKLKKLAKKAL-NH2 [P24]
SW480
  LD50 SW480: 38 µg/mL
BMKC
  LD50 BMKC: 85 µg/mL
MCF7
  LD50 MCF7: 26 µg/mL
HeLaS3
  HeLaS3 LD50: 145 µg/mL
H1299
  H1299 LD50: 72 µg/mL
PC3
  PC3 LD50: 38 µg/mL
WI38
  WI38 LD50: 55 µg/mL
In vitro [2]
  CC50 at 24 h: 55 µg/mL
In vitro [3]
  HC50 at 1 h: 10 µg/mL
Pseudomonas aeruginosa; first of two columns
  MIC 30 min treatment: 40 µg/mL
  MIC 2 hr treatment: 20 µg/mL
Pseudomonas aeruginosa; second of two columns
  MIC 30 min treatment: 20 µg/mL
  MIC 2 hr treatment: 20 µg/mL
P. aeruginosa H374
  MIC Cm-comb.: 16 µg/mL
  MIC Nal-comb.: 5000 µg/mL
P. aeruginosa H374; [10]
  FIC Index: 1.25
P. aeruginosa H374; [11]
  FIC Index: 1.25
P. aeruginosa H774
  FIC Index: 1.25
P. aeruginosa
  MIC Nal-comb.: 624 µg/mL
[1]; sheep serum, […], 70% serum
  Solubility: Precipitated

## KWKLFKKKTKLFKKFAKKLAKKL-OH [P81]
SW480
  LD50 SW480: 13 µg/mL
BMKC
  LD50 BMKC: 12 µg/mL
MCF7
  LD50 MCF7: 63 µg/mL
HeLaS3
  HeLaS3 LD50: 19 µg/mL
H1299
  H1299 LD50: 22 µg/mL
PC3
  PC3 LD50: 170 µg/mL
WI38
  WI38 LD50: 8 µg/mL
In vitro [2]
  CC50 at 24 h: 8 µg/mL
[4]
  yeast (MIC or MFC): > (> indicates greater than 200 μg/mL)
In vitro [3]
  HC50 at 1 h: 8 µg/mL
[5]
  paerug9027 (MIC): > (> indicates greater than 200 μg/mL)
[6]
  staph6538 (MIC): 10 µg/mL
Pseudomonas aeruginosa; first of two columns
  MIC 30 min treatment: 20 µg/mL
  MIC 2 hr treatment: 20 µg/mL
Pseudomonas aeruginosa; second of two columns
  MIC 30 min treatment: 20 µg/mL
  MIC 2 hr treatment: 20 µg/mL
P. aeruginosa H374
  MIC Cm-comb.: 16 µg/mL
  MIC Nal-comb.: 5000 µg/mL
P. aeruginosa H374; [10]
  FIC Index: 1.25
P. aeruginosa H374; [11]
  FIC Index: 1.25
P. aeruginosa H774
  FIC Index: 1.25
P. aeruginosa
  MIC Nal-comb.: 624 µg/mL
[1]; sheep serum, […], 70% serum
  Solubility: Precipitated

## MPRWRLFRRIDRVGKQIKQGILRAGPAIALVGDARAVG [Shiva-1]
[7]; S. intermedius 19930
  viability at 0.01 µM: 100%
  viability at 0.1 µM: 81.8%
  viability at 0.5 µM: 65%
  viability at 1 µM: 42.1%
  viability at 5 µM: 35.2%
  viability at 10 µM: 1.2%
  viability at 50 µM: 0%
[7]; S. intermedius 20034
  viability at 0.01 µM: 100%
  viability at 0.5 µM: 80%
  viability at 5 µM: 4.1%
  viability at 50 µM: 0%
[8]
  viability at 0.01 µM: 100%
  viability at 0.1 µM: 69.6%
  viability at 1 µM: 37.9%
  viability at 5 µM: 1.5%
  viability at 25 µM: 0%
[9]
  viability at 0.01 µM: 100%
  viability at 0.1 µM: 100%
  viability at 0.5 µM: 50.1%
  viability at 1 µM: 24.4%
  viability at 5 µM: 15.9%
  viability at 10 µM: 4.5%
  viability at 50 µM: 1.6%

## VALALKALKKALKKLKKALKKAL-OH [P508]
In vitro [3]
  HC50 at 1 h: 70 µg/mL
Pseudomonas aeruginosa; first of two columns
  MIC 30 min treatment: 40 µg/mL
  MIC 2 hr treatment: 40 µg/mL
Pseudomonas aeruginosa; second of two columns
  MIC 30 min treatment: 20 µg/mL
  MIC 2 hr treatment: 20 µg/mL
Pseudomonas aeruginosa; sheep serum, […], 37° C. for 30 minutes or 2 hours
  change of activity by exposure to serum (serum MIC against Pseudomonas aeruginosa): only modestly decreased
P. aeruginosa H374
  MIC Cm-comb.: 8 µg/mL
  MIC Nal-comb.: 5000 µg/mL
P. aeruginosa H374; [10]
  FIC Index: 0.75
P. aeruginosa H374; [11]
  FIC Index: 1.25
[1]; sheep serum, […], 70% serum
  Solubility: Soluble
[1]; sheep, 70% sheep serum
  Solubility: ≥ 1280 µg/mL
